SMILES strings stand for the structures.

Our source for the Kd values is patent publication US12091402B2 (Avilar Therapeutics, Inc., priority 2021, dated 2024).

For this experiment, the target named is T1, ASGPR (Homo sapiens, UniProt P07306).
T1 sequence (P07306 1-291): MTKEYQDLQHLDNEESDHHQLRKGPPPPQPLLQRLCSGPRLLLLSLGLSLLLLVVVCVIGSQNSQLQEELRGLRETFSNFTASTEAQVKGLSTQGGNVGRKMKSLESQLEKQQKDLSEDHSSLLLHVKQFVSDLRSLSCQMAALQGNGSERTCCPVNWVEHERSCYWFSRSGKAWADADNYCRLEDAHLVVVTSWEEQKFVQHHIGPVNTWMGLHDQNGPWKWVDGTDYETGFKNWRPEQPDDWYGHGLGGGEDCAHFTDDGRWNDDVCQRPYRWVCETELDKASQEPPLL
Nature of the experiment: Affinity to ASGPR by surface plasmon resonance (SPR). On the technique in general: In SPR one partner is held on a chip, and binding of the other changes the refractive index at the surface.

Procedure: Biotinylated ASGPR (20 μg/ml) was immobilized on SA sensor chips (GE Healthcare) at flow rate of 5 μl/min for 90 sec reaching an immobilization level ranging from 500-3000 resonance units (RU). The running buffer was 50 mM HEPES, pH7.5, 150 mM NaCl, 50 mM CaCl2), 0.01% P20, 3% DMSO. The concentration of compounds vary from 2 mM to 5 nM depending on Kd values. The compounds are diluted 2 or 3-fold with 8 concentration points. Solutions containing serially diluted compounds are injected at a flow rate of 40 μL/min for 150-300 sec followed by a 90-300 sec dissociation phase for each concentration. The surface was regenerated using 50 mM HEPES, pH 7.5, 150 mM NaCl, 5 mM EDTA, 0.01% P20, 3% DMSO.
Data was processed using the analysis software in Biacore 8K to perform background subtraction, double referencing, and solvent correction. Values of affinity expressed as the dissociation constants (Kd) were determined by fitting the steady state binding responses (RUs) as a function of the concentration ([Compound]) using the following equation: RU=RUmax/(KD+[Compound]), where RU max is the calculated maximal response. Where appropriate double-referenced data were fit to using a 1:1 binding model for kinetic analysis.

By Kd is commonly meant the equilibrium constant for the complex coming apart. A higher Kd goes with weaker binding. With `N#Cc1nc(N[C@H]2CO[C@H](CO)[C@H](O)[C@@H]2O)cc(C(F)(F)F)n1` [A79, 4-(((3S,4R,5R,6R)-4,5-dihydroxy-6-(hydroxymethyl)tetrahydro-2H-pyran-3-yl)amino)-6-(trifluoromethyl)pyrimidine-2-carbonitrile], the Kd is more than 20000 nM.
`NC[C@H]1OC[C@H](Nc2cncc(C(F)(F)F)n2)[C@@H](O)[C@H]1O` [A89, (2R,3R,4R,5S)-2-(aminomethyl)-5-((6-(trifluoromethyl)pyrazin-2-yl)amino)tetrahydro-2H-pyran-3,4-diol] came in with a dissociation constant Kd of less than 1000 nM.
The molecule `C[Si](C)(C)c1cn(C[C@H]2OC[C@H](Nc3nccc(C(F)(F)F)n3)[C@@H](O)[C@H]2O)nn1` [A66, (2R,3R,4R,5S)-5-((4-(trifluoromethyl)pyrimidin-2-yl)amino)-2-((4-(trimethylsilyl)-1H-1,2,3-triazol-1-yl)methyl)tetrahydro-2H-pyran-3,4-diol] registered a Kd of 1000 to 10000 nM.
`N=C(N)N[C@H]1CO[C@H](COCc2ccccc2)[C@H](OCc2ccccc2)[C@@H]1OCc1ccccc1` [A73, 1-((3S,4R,5R,6R)-4,5-bis(benzyloxy)-6-((benzyloxy)methyl)tetrahydro-2H-pyran-3-yl)guanidine] came in with a Kd of more than 20000 nM.
The figure for `Cc1cc(C#N)nc(N[C@H]2[C@H]3OC[C@](CO)(O3)[C@H](O)[C@@H]2O)n1` [A38, 2-[[(1S,2R,3R,4R,5S)-2,3-dihydroxy-1-(hydroxymethyl)-6,8-dioxabicyclo[3.2.1]octan-4-yl]amino]-6-methyl-pyrimidine-4-carbonitrile] is 1000 to 10000 nM; for `NC(COCCC(=O)NCCOCCOCCOCCOC[C@H]1OC[C@H](Nc2nccc(C(F)(F)F)n2)[C@@H](O)[C@H]1O)COCCC(=O)NCCOCCOCCOCCOC[C@H]1OC[C@H](Nc2nccc(C(F)(F)F)n2)[C@@H](O)[C@H]1O` [A13, 3,3′-((2-aminopropane-1,3-diyl)bis(oxy))bis(N-(1-((2R,3R,4R,5S)-3,4-dihydroxy-5-((4-(trifluoromethyl)pyrimidin-2-yl)amino)tetrahydro-2H-pyran-2-yl)-2,5,8,11-tetraoxatridecan-13-yl)propanamide)] it is less than 100 nM; for `OC[C@H]1OC[C@H](Nc2ccc(F)c(C(F)(F)F)n2)[C@@H](O)[C@H]1O` [A82, (2R,3R,4R,5S)-5-((5-fluoro-6-(trifluoromethyl)pyridin-2-yl)amino)-2-(hydroxymethyl)tetrahydro-2H-pyran-3,4-diol] it is 1000 to 10000 nM.
The same measure for `CCOC(=O)c1ccc(Cl)nc1N[C@H]1[C@H]2OC[C@](CO)(O2)[C@H](O)[C@@H]1O` [A112, ethyl 6-chloro-2-(((1S,2R,3R,4R,5S)-2,3-dihydroxy-1-(hydroxymethyl)-6,8-dioxabicyclo[3.2.1]octan-4-yl)amino)nicotinate]: 1000 to 10000 nM.
As to `O=C(CCOCc1ccc(-c2cccc3ccncc23)c(OCCc2ccc(-c3cccc4ccncc34)cc2)c1)NCCOCCOCCOCCOC[C@@]12CO[C@@H](O1)[C@H](Nc1cncc(C(F)(F)F)n1)[C@@H](O)[C@H]2O` [Compound 56], the equilibrium dissociation constant (Kd) was less than 100 nM.
`OC[C@H]1OCC(Nc2cc(C(F)(F)F)[nH]n2)[C@@H](O)[C@H]1O` (stereo in doubt) [A93, (2R,3R,4R,5S)-2-(hydroxymethyl)-5-((5-(trifluoromethyl)-1H-pyrazol-3-yl)amino)tetrahydro-2H-pyran-3,4-diol] gave a Kd of more than 100 nM.
As to `COc1cc(N[C@H]2[C@H]3OC[C@](CO)(O3)[C@H](O)[C@@H]2O)nc(C(F)(F)F)n1` [A47, (1S,2R,3R,4R,5S)-1-(hydroxymethyl)-4-((6-methoxy-2-(trifluoromethyl)pyrimidin-4-yl)amino)-6,8-dioxabicyclo[3.2.1]octane-2,3-diol], the Kd was less than 1000 nM.
As to `O=C(NC[C@H]1OC[C@H](Nc2cncc(C(F)(F)F)n2)[C@@H](O)[C@H]1O)[C@H]1C[C@H]1F` [A108, (1R,2R)—N-(((2R,3R,4R,5S)-3,4-dihydroxy-5-((6-(trifluoromethyl)pyrazin-2-yl)amino)tetrahydro-2H-pyran-2-yl)methyl)-2-fluorocyclopropane-1-carboxamide], the Kd is more than 20000 nM.
